Measurements published in ChEMBL document CHEMBL4385639, “1,2,3-Triazole-containing hybrids as leads in medicinal chemistry: A recent overview” (Bioorg Med Chem, 2019).
Values after ≈ are worked out from the molar mass of the structure shown.

Legend:
Rattus norvegicus = experiment: Anti-inflammatory activity against carrageenan-induced paw oedema in Wistar rat assessed as reduction in paw edema at 20 mg/kg administered 30 mins prior to carrageenan challenge measured at 3 hrs post carrageenan challenge by plethysmometric method relative to control; format: functional; design: scale not given: the % may be the effect or the level left
[1] = Inhibition of soyabean 5-lipoxygenase using arachidonic acid as substrate incubated for 5 mins by spectrophotometric method; design: species or system Glycine max
DU-145 = experiment: Cytotoxicity against human DU145 cells incubated for 48 hrs by MTT assay; format: functional, cell-based; conditions: DU-145, 48 h
[2] = target: Prostaglandin G/H synthase 2 (Homo sapiens, UniProt P35354); experiment: Inhibition of human COX2 using arachidonic acid as substrate pretreated for 5 mins followed by substrate addition and measured after 20 mins by colorimetric assay
HeLa [3] = experiment: Cytotoxicity against human HeLa cells incubated for 24 hrs by MTT assay; format: functional, cell-based
A549 [4] = experiment: Induction of cell cycle arrest in human A549 cells assessed as accumulation at subG1 phase by flow cytometry relative to control; format: functional
HeLa [5] = experiment: Induction of cell cycle arrest in human HeLa cells assessed as accumulation at subG1 phase by flow cytometry relative to control; format: functional
A549 [6] = experiment: Cytotoxicity against human A549 cells incubated for 24 hrs by MTT assay; format: functional, cell-based; conditions: A549, 24 h
[7] = target: Polyunsaturated fatty acid 5-lipoxygenase (Homo sapiens, UniProt P09917); experiment: Inhibition of 5-lipoxygenase (unknown origin) incubated for 10 mins
[8] = target: Tyrosinase (Homo sapiens) (UniProt P14679); experiment: Inhibition of tyrosinase (unknown origin) using L-DOPA as substrate preincubated with substrate for 2 mins followed by enzyme addition and measured after 10 min by spectrophotometric method relative to control
Cholinesterase [9] = target: Cholinesterase (Homo sapiens, UniProt P06276); experiment: Inhibition of BChE (unknown origin) using butyrylthiocholine iodide as substrate preincubated for 15 mins followed by substrate addition and measured after 15 mins
Acetylcholinesterase = Acetylcholinesterase (Electrophorus electricus, UniProt O42275); experiment: Inhibition of electric eel AChE using acetylthiocholine iodide as substrate preincubated for 3 mins followed by substrate addition by Ellman's method
Cholinesterase [10] = target: Cholinesterase (Equus caballus, UniProt P81908); experiment: Inhibition of equine serum BuChE using butyrylthiocholine iodide as substrate preincubated for 3 mins followed by substrate addition by Ellman's method
Bacillus subtilis = experiment: Antibacterial activity against Bacillus subtilis MTCC 441 after 24 hrs by serial dilution method; format: functional; conditions: MTCC 441, 24 h
Escherichia coli [11] = experiment: Antibacterial activity against Escherichia coli MTCC 1652 after 24 hrs by serial dilution method; format: functional; conditions: MTCC 1652, 24 h
Pseudomonas aeruginosa = experiment: Antibacterial activity against Pseudomonas aeruginosa MTCC 424 after 24 hrs by serial dilution method; format: functional; conditions: MTCC 424, 24 h
[12] = tested on: Staphylococcus epidermidis; experiment: Antibacterial activity against Staphylococcus epidermidis MTCC 6880 incubated for 24 hrs by serial dilution method; format: functional; conditions: MTCC 6880, 24 h
Candida albicans = experiment: Antifungal activity against Candida albicans MTCC 183 after 24 hrs by serial dilution method; format: functional; conditions: MTCC 183, 24 h
[13] = Inhibition of Saccharomyces cerevisiae alpha-glucosidase using p-nitrophenyl-alpha-D-glucopyranoside as substrate preincubated for 10 mins followed by substrate addition and measured after 20 mins by spectrophotometric analysis
Staphylococcus aureus = experiment: Antimicrobial activity against Staphylococcus aureus NCIM 5022 incubated for 36 hrs by agar well diffusion method; format: functional
Escherichia coli [14] = experiment: Antimicrobial activity against Escherichia coli NCIM 5051 incubated for 36 hrs by agar well diffusion method; format: functional
Leishmania major = experiment: Antileishmanial activity against Leishmania major 5-ASKH promastigotes incubated for 72 hrs by hemocytometer based cell counting method; format: functional, organism-based
[15] = target: Dihydroorotate dehydrogenase (quinone), mitochondrial (Homo sapiens, UniProt Q02127); experiment: Inhibition of human recombinant N-terminal His-tagged DHODH (31 to 395 residues) expressed in Escherichia coli using dihydroorotate substrate preincubated for 5 mins followed by substrate addition by DCIP assay
MCF7 [16] = experiment: Cytotoxicity against human MCF7 cells incubated up to 48 hrs by MTT assay; format: functional, cell-based; conditions: MCF7, 48 h
[17] = Inhibition of quorum sensing system in Pseudomonas aeruginosa MH602 PlasB::gfp-ASV at 250 uM measured every 30 minutes over 20 hrs by fluorescence analysis relative to control
[18] = tested on: Mycobacterium tuberculosis; experiment: Antitubercular activity against Mycobacterium tuberculosis H37Rv after 7 days by MABA; format: functional; conditions: 168 h
MCF7 [19] = experiment: cells; conditions: Homo sapiens, MCF7, 72 h
Description: Antiproliferative activity against human MCF7 cells incubated for 72 hrs by MTT assay

[20] = Antioxidant activity assessed as inhibition of DPPH radical generation; format: functional
Alpha glucosidase = Alpha glucosidase (Homo sapiens, UniProt O43451+P10253+P14410+Q2M2H8); experiment: Inhibition of alpha-glucosidase (unknown origin) using p-nitrophenyl-alpha-D-glucopyranoside as substrate pre-incubated for 15 mins followed by substrate addition and measured for 20 mins by spectrophotometric analysis; format: protein assay
SNB-19 [21] = experiment: Cytotoxicity against human SNB19 cells after 72 hrs by WST-1 assay; format: functional, cell-based; conditions: SNB-19, 72 h
SNB-19 [22] = experiment: Potency index, ratio of cisplatin IC50 to compound IC50 for cytotoxicity against human SNB19 cells; format: functional
Urease = Urease (Canavalia ensiformis, UniProt P07374); experiment: Inhibition of jack bean urease assessed as reduction in ammonia production by Berthelot colorimetric method
U-937 [23] = experiment: Antiinflammatory activity in human U937 cells assessed as inhibition of LPS-induced TNF-alpha production incubated for 24 hrs by ELISA; format: functional, cell-based; conditions: U-937, 24 h
U-937 [24] = experiment: Antiinflammatory activity in human U937 cells assessed as inhibition of LPS-induced TNF-alpha production at 10 uM incubated for 24 hrs by ELISA relative to control; format: functional; conditions: U-937, 24 h
A549 [25] = experiment: Cytotoxicity against human A549 cells incubated for 72 hrs by MTT assay; format: functional, cell-based; conditions: A549, 72 h
HepG2 [26] = experiment: Cytotoxicity against human HepG2 cells incubated for 72 hrs by MTT assay; format: functional, cell-based; conditions: HepG2, 72 h
HepG2 [27] = experiment: Potency index, ratio of foretinib IC50 to compound IC50 for antiproliferative activity against human HepG2 cells; format: functional
A549 [28] = experiment: Potency index, ratio of foretinib IC50 to compound IC50 for antiproliferative activity against human A549 cells; format: functional
[29] = target: Hepatocyte growth factor receptor (Homo sapiens, UniProt P08581); experiment: Inhibition of cMET (unknown origin) using FAM-labeled peptide as substrate pre-incubated for 10 mins followed by substrate addition by mobility shift assay
MCF7 [30] = experiment: Potency index, ratio of foretinib IC50 to compound IC50 for antiproliferative activity against human MCF7 cells; format: functional
Escherichia coli [31] = experiment: Antimicrobial activity against Escherichia coli […]; format: functional
HT-29 [32] = experiment: Potency index, ratio of cisplatin IC50 to compound IC50 for cytotoxicity against human HT-29 cells; format: functional
HT-29 [33] = experiment: Cytotoxicity against human HT-29 cells after 72 hrs by SRB assay; format: functional, cell-based; conditions: HT-29, 72 h
A549 [34] = experiment: Cytotoxicity against human A549 cells after 48 hrs by MTT assay; format: functional, cell-based; conditions: A549, 48 h
[35] = target: Serine/threonine-protein kinase PLK1 (Homo sapiens, UniProt P53350); experiment: Inhibition of PLK1 PBD (unknown origin) using GPMQSpTPLNG-OH as fluorescent probe incubated for 30 mins by fluorescence polarization assay
Serine/threonine-protein kinase PLK1, sequence (P53350 whole entry): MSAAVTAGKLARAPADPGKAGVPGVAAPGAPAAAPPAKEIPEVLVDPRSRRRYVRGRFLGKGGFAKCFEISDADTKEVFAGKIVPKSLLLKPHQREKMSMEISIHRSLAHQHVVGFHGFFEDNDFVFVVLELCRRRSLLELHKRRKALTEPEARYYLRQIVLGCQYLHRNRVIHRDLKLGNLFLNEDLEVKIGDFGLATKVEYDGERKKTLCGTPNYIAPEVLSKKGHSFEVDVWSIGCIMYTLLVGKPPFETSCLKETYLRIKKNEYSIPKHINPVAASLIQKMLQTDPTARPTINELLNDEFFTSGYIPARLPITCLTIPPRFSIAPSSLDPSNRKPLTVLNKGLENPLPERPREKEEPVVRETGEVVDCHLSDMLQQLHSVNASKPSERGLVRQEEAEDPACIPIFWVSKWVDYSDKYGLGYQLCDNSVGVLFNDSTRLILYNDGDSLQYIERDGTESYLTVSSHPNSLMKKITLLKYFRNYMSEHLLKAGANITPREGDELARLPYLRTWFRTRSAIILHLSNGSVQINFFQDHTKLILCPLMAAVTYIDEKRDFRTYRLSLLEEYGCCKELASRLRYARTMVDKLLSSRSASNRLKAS

Tyrosinase (Homo sapiens), sequence (P14679 whole entry): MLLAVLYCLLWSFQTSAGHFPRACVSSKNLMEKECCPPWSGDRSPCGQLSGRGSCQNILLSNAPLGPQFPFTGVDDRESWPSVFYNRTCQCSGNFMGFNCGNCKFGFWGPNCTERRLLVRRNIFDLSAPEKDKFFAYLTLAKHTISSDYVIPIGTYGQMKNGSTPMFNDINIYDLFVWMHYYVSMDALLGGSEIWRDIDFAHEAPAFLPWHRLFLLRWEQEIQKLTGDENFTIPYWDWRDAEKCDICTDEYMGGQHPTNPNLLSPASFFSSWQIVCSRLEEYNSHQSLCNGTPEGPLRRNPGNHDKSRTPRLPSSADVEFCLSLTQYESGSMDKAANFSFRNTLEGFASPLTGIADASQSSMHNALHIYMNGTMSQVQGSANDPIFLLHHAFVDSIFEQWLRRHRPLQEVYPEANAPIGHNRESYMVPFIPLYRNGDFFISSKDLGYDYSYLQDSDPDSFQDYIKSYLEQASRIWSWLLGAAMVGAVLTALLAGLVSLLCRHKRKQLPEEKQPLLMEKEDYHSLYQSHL
Cholinesterase (Homo sapiens, UniProt P06276), sequence (P06276 whole entry): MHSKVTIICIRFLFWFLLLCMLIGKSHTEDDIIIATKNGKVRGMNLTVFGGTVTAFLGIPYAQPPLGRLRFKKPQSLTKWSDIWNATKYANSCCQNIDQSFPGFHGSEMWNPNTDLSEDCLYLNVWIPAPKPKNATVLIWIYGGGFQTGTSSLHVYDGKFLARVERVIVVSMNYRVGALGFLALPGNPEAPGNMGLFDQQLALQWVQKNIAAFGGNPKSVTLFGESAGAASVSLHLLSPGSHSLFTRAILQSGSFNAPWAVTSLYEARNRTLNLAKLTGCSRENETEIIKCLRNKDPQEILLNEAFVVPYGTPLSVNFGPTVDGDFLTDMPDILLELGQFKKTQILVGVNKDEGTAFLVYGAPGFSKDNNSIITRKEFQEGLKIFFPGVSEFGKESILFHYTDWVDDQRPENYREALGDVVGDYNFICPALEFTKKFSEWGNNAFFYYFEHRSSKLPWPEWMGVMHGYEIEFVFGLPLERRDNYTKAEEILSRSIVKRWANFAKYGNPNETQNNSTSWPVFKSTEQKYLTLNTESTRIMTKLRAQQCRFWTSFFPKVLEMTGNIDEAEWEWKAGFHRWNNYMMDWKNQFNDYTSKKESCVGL
Polyunsaturated fatty acid 5-lipoxygenase, sequence (P09917 whole entry): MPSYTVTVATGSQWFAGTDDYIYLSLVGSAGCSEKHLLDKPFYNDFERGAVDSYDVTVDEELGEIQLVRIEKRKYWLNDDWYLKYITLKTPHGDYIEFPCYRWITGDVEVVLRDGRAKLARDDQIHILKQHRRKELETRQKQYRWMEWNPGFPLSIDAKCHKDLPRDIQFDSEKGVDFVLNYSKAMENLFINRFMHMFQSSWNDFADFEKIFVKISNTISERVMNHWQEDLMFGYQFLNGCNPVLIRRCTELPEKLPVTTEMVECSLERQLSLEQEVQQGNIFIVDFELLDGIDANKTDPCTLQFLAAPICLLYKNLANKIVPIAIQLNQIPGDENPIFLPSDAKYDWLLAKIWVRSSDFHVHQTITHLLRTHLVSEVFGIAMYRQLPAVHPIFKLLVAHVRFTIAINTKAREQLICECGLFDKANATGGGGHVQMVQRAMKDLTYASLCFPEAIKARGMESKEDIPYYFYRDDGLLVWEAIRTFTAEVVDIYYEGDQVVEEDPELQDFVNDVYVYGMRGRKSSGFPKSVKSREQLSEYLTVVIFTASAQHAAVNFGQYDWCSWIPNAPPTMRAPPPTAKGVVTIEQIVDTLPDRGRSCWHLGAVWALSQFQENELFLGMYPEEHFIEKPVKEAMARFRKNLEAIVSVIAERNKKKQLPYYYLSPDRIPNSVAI
Acetylcholinesterase, sequence (O42275 whole entry): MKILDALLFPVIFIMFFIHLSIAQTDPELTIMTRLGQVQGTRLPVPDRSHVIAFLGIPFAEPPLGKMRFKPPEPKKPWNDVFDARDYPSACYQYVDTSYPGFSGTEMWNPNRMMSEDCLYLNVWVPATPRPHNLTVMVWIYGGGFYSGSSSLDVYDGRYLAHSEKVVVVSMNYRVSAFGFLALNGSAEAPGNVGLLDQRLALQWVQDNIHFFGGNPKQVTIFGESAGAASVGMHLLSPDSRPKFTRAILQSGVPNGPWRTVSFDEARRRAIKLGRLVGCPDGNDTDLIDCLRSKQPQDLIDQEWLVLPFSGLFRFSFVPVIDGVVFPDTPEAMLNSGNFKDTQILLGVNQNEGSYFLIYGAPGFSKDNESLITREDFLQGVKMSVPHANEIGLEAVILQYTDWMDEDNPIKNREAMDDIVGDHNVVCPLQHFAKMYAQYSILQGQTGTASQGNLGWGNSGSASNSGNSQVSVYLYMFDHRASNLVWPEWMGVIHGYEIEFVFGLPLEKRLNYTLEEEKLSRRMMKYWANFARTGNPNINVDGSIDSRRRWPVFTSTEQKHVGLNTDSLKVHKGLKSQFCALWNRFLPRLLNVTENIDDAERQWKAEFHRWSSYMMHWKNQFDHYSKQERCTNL
Prostaglandin G/H synthase 2, sequence (P35354 whole entry): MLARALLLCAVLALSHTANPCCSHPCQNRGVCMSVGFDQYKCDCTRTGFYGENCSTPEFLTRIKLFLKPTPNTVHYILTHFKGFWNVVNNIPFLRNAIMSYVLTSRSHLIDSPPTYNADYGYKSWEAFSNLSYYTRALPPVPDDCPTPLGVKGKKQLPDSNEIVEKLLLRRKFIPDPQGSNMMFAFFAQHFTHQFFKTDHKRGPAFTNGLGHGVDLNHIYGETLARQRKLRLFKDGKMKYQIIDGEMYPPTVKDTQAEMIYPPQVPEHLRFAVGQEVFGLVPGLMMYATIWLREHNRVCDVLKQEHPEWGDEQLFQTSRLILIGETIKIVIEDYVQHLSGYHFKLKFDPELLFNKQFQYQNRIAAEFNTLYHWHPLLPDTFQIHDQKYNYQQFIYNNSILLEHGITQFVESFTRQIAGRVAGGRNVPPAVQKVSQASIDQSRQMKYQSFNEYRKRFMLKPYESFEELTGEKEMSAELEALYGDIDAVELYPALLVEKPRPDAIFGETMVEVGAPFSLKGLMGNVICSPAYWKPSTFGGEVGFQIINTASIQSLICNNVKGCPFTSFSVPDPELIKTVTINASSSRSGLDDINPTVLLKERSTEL
Urease, sequence (P07374 whole entry): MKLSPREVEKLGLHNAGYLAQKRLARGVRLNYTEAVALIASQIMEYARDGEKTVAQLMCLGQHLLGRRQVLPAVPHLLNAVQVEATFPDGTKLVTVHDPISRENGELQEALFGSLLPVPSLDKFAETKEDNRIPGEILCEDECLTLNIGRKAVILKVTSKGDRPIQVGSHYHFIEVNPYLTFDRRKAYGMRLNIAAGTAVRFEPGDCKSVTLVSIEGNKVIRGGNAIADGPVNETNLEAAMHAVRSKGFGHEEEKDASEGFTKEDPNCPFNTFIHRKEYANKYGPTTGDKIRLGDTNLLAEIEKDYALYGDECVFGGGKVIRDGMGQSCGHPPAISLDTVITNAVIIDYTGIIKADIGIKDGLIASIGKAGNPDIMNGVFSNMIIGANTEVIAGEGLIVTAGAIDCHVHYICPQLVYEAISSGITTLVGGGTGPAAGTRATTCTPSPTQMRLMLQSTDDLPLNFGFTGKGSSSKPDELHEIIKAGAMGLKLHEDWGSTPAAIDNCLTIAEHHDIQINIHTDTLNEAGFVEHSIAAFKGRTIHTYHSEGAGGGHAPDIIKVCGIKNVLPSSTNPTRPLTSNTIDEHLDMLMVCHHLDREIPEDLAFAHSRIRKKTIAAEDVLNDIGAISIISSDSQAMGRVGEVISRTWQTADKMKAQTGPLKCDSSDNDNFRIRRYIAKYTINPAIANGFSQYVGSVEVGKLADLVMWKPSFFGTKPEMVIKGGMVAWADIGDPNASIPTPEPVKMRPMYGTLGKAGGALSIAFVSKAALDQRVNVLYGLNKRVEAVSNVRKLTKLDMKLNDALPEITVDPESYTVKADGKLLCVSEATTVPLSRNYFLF
Dihydroorotate dehydrogenase (quinone), mitochondrial, sequence (Q02127 whole entry, the tested form may be a part): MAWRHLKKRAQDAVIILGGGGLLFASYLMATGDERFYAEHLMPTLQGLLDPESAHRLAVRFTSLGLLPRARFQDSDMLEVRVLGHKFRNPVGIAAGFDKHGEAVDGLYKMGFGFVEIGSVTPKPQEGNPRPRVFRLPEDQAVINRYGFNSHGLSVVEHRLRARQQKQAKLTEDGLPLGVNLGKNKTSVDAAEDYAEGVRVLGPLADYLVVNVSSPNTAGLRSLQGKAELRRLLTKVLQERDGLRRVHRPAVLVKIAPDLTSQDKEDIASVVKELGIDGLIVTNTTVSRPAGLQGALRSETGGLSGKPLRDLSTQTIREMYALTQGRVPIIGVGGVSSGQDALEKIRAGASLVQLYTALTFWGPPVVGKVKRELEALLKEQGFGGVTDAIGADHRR

CCc1ccc(-n2cc(CNC(=O)C(=O)c3cc4ccccc4[nH]3)nn2)cc1
Activity (Rattus norvegicus): 76.9%
IC50 [1]: 7.73 µM
IC50 (DU-145): 8.17 µM
IC50 [2]: 0.12 µM

COc1cc(-c2cc(COc3ccccc3-c3nc4ccccc4o3)on2)ccc1OCc1cn(CC(=O)NCc2ccco2)nn1
IC50 (HeLa [3]): 1.77 µM
Activity (A549 [4]): 49.43%
Activity (HeLa [5]): 42.58%
IC50 (A549 [6]): 2.59 µM

O=c1oc2ccccc2c2c1cnn2Cc1cn(-c2c(Cl)cc(Cl)cc2Cl)nn1
IC50 [7]: 21 µM
inhibition [8]: 72%
IC50 (Cholinesterase [9]): 18 µM

O=C(CCCCC1CCSS1)NCc1cn(CCCCOc2ccc(-c3cc4c(ccc5ccccc54)oc3=O)cc2)nn1 (centres undefined)
IC50 (Acetylcholinesterase): 7.3 µM
IC50 (Cholinesterase [10]): 68.6 µM

O=C(Cn1cc(CSc2ccc(Br)cc2)nn1)OCc1ccc(Cl)cc1
MIC (Bacillus subtilis): 15.3 µM (≈ 6.93 µg/mL)
MIC (Escherichia coli [11]): 15.3 µM (≈ 6.93 µg/mL)
MIC (Pseudomonas aeruginosa): 15.3 µM (≈ 6.93 µg/mL)
MIC [12]: 15.3 µM (≈ 6.93 µg/mL)
MIC (Candida albicans): 15.3 µM (≈ 6.93 µg/mL)

O=c1c2ccccc2nc(SCc2cn(Cc3ccc(Br)cc3)nn2)n1CCc1ccccc1
Ki [13]: 117 µM

Fc1cccc(Cl)c1Cn1nncc1CN1CCN(C(c2ccccc2)c2ccccc2)CC1
diameter of the inhibition zone (DIZ) (Staphylococcus aureus): 16.33 mm
diameter of the inhibition zone (DIZ) (Escherichia coli [14]): 15.63 mm

COC(=O)[C@H](CC(C)C)NC(=O)c1cn(-c2ccccc2N)nn1
IC50 (Leishmania major): 11 mg/L (≈ 33.2 µM)

NC(=O)c1cc(F)c(F)cc1-n1cc(COc2ccc(C(F)(F)F)cc2)nn1
IC50 [15]: 2.1 µM

O=C1C(=O)N(CCn2cc(COCCOc3ccc(/C(=C(/CCCl)c4ccccc4)c4ccccc4)cc3)nn2)c2c(Br)cc(Br)cc21
IC50 (MCF7 [16]): 1.56 µM

CCc1ccc(-n2cc(CCC(=O)Nc3c(-c4ccccc4)[nH]c4ccccc34)nn2)cc1
inhibition [17]: 60.8%

COc1ccc(-n2nnc3c2CCC2(C=Cc4cc(C)ccc4O2)C3)cc1 (centres undefined)
MIC [18]: 4.34 µM (≈ 1.56 µg/mL)

COc1ccc(-n2nnc3c2CCC2(C=Cc4cc(Cl)ccc4O2)C3)cc1 (centres undefined)
MIC [18]: 4.11 µM (≈ 1.56 µg/mL)

O=C1CCC(N2C(=O)c3cccc(NC(=O)CCCCCCCn4cc(COc5c(O)cc(O)c6c(=O)cc(-c7ccccc7)oc56)nn4)c3C2=O)C(=O)N1 (centres undefined)
IC50 (MCF7 [19]): 17 µM

O=C(Cn1cc(CSc2ccc(Cl)cc2)nn1)OCc1ccc(Cl)cc1
MIC (Escherichia coli [11]): 13.8 µM (≈ 5.63 µg/mL)
MIC (Pseudomonas aeruginosa): 13.8 µM (≈ 5.63 µg/mL)
MIC [12]: 13.8 µM (≈ 5.63 µg/mL)
MIC (Candida albicans): 13.8 µM (≈ 5.63 µg/mL)

Cn1c(=O)c2c3cc(F)ccc3c(=O)n(Cc3cn(Cc4ccccc4)nn3)c2n(C)c1=O
IC50 [20]: 6.02 µM

COc1ccc(-c2ccc(O[C@H](C)Cn3cc(-c4ccc(C(F)(F)F)cc4)nn3)c(OC)c2)cc1
IC50 (Alpha glucosidase): 14.2 µM

Clc1ccc(Cn2nncc2CN2CCN(C(c3ccccc3)c3ccccc3)CC2)c(Cl)c1
diameter of the inhibition zone (DIZ) (Staphylococcus aureus): 16.45 mm
diameter of the inhibition zone (DIZ) (Escherichia coli [14]): 16.15 mm

C=C(C)[C@@H]1CC[C@]2(COC(=O)c3cn([C@H]4C[C@H](n5cc(C)c(=O)[nH]c5=O)O[C@@H]4CO)nn3)CC[C@]3(C)[C@H](CC[C@@H]4[C@@]5(C)CCC(=O)C(C)(C)[C@@H]5CC[C@]43C)[C@@H]12
IC50 (SNB-19 [21]): 0.17 µM
Ratio IC50 (SNB-19 [22]): 5

Cc1ccc2c(c1)C=CC1(CCc3c(nnn3-c3ccccc3)C1)O2 (centres undefined)
MIC [18]: 4.74 µM (≈ 1.56 µg/mL)

COc1ccc(NC(=O)NCc2cn(Cc3ccc(Cl)cc3Cl)nn2)cc1
IC50 (Urease): 22.8 µM

Cc1cc(O)cc2oc(=O)cc(CNCc3cn(-c4ccc(Br)cc4)nn3)c12
IC50 (U-937 [23]): 8.01 µM
inhibition at 10 µM (U-937 [24]): 62%

O=c1oc2ccccc2c2nn(Cc3cn(-c4c(Cl)cc(Cl)cc4Cl)nn3)cc12
IC50 [7]: 24 µM
inhibition [8]: 58%
IC50 (Cholinesterase [9]): 29 µM

O=C(Nc1ccc(Oc2ncnc3ccsc23)c(F)c1)c1nnn(-c2ccc(Cl)cc2)c1C(F)(F)F
IC50 (A549 [25]): 0.9 µM
IC50 (HepG2 [26]): 0.5 µM
IC50 (MCF7 [19]): 1.1 µM
Ratio IC50 (HepG2 [27]): 3.7 - 5.4
Ratio IC50 (A549 [28]): 3.7 - 5.4
IC50 [29]: 0.016 µM
Ratio IC50 (MCF7 [30]): 3.7 - 5.4

Cc1cc(O)c(C(=O)/C=C/c2ccc(OCc3cn(Cc4ccc(Br)cc4)nn3)cc2)c(=O)o1
MIC (Escherichia coli [31]): 3 µM (≈ 1.57 µg/mL)

C=C[C@H]1CN2CC[C@H]1C[C@H]2[C@H](O)c1cc(-c2cn(-c3ccc(O)cc3)nn2)nc2ccc(OC)cc12
Ratio IC50 (HT-29 [32]): 8
IC50 (HT-29 [33]): 1.21 µM

COc1cc(Cn2cc(C(=O)c3c(-c4ccccc4)nc4ccccn34)nn2)cc(OC)c1OC
IC50 (A549 [34]): 0.51 µM
IC50 (DU-145): 1.04 µM

O=C(CCNC(=O)c1ccc(CO)cc1)N[C@@H](Cc1cnnn1CCCCCCCCc1ccccc1)C(=O)NCc1cnnn1CCP(=O)(O)O
IC50 [35]: 3.37 µM

COc1c(O)cc(O)c2c(=O)cc(-c3ccccc3)oc12 [WOGONIN]
IC50 (MCF7 [19]): 30 µM
